The values that follow come from patent US20150094321A1, “COMBINATION” (GlaxoSmithKline LLC, priority 2009, published 2015).

Like-named read-outs stand apart in the source and are kept apart here.

Common to all, as to assay type: cell-based, human
One experiment concerns BT-474-J4. Nature of the experiment: Cell growth inhibition assay. The note with it: BT-474-J4, breast, HER2+, PIK3CA K111N, single agent, read-out: IC50 Single Agent (mean +/- std). As for the experimental part:
(§1) Human breast tumor lines. BT-474, HCC1419, HCC1937, HCC1954, HCC202, KPL-1, MDA-MB-157, MDA-MB-175-VII, MDA-MB-361, MDA-MB-453, SK-BR-3, SUM225PE, UACC893, and ZR-75-1; lung tumor line, CALU-3; and melanoma line, CHL-1, were from ATCC. Human breast tumor line JIMT-1 was from European Collection of Cell Cultures (UK). Human breast tumor lines SUM149PT, SUM190PT and SUM52PE were from Asterand. These lines were cultured in RPMI 1640 medium containing 10% fetal bovine serum (FBS). A head and neck tumor line, LICR LON HN5 (HN5), a gift from the Institute of Cancer Research, Surrey, U.K, was cultured in Dulbecco's modified Eagle medium (DMEM) containing 5% FBS; KPL-4 breast tumor cell line was kindly provided by Dr Junichi Kurebayashi (Kawasaki Medical School, Okayama, Japan) and cultured in DMEM containing 5% FBS. JIMT-1 is a line derived from a patient clinically resistant to trastuzumab (Herceptin®). BT-474-J4 is a single cell clone derived from a pool of BT-474 cells that were selected to grow in lapatinib to a concentration of 3 μM.
(§2) All cells were cultured for a minimum of 72 hours prior to cell plating. Cells were assayed in a 96-well tissue culture plate (NUNC 136102) of RPMI medium containing 10% FBS for all cells at 2,000 cells per well except KPL-4 and HN5 which were plated in DMEM containing 5% FBS at 500 cells per well. Approximately 24 hours after plating, cells were exposed to ten, two-fold or three-fold serial dilutions of compound or the combination of the two agents at a constant molar to molar ratio of 1:1 Compound A to Compound B in RPMI media containing 10% FBS or DMEM containing 5% FBS. Cells were incubated in the presence of compounds for 3 days. ATP levels were determined by adding Cell Titer Glo® (Promega) according to the manufacturer's protocol. Briefly, Cell Titer Glo® was added each plate, incubated for 20 minutes then luminescent signal was read on the SpectraMax L plate reader with a 0.5 sec integration time.
(§3) Inhibition of cell growth was estimated after treatment with compound or combination of compounds for three days and comparing the signal to cells treated with vehicle (DMSO). Cell growth was calculated relative to vehicle (DMSO) treated control wells. Concentration of compound that inhibits 50% of control cell growth (IC50) was interpolated using nonlinear regression with the equation, y=(A+(B−A)/(1+(C/x)̂D))), where A is the minimum response (ymin), B is the maximum response (ymax), C is the inflection point of the curve (EC50) and D is the Hill coefficient. […]

The next experiment has as its system SUM225PE. Nature of the experiment: Cell growth inhibition assay. The conditions noted are these: breast, HER2+, WT, single agent, read-out: IC50 Single Agent (mean +/- std). How it is done: as §1, §2, §3
A further experiment relates to JIMT-1. Nature of the experiment: Cell growth inhibition assay. The conditions noted are these: for IC50: Homo sapiens, JimT-1, breast, HER2+, PIK3CA C420R, single agent, read-out: IC50 Single Agent (mean +/- std); for sensitivity as single agents: JIMT-1. As for the experimental part:
as §1, §2, §3

The next experiment concerns SKMES1. Description: Cell line proliferation study. The conditions noted are these: SKMES1, lung; for IC50: Homo sapiens, SK-MES-1, 72 hours, read-out: gIC50. As for the experimental part:
(§4) In a separate study, combination drug tests with Compounds A and B were conducted using a panel of cell lines from human colon cancers (n=26), lung cancers (n=15) and pancreatic cancers (n=6). Cell lines were obtained from commercial vendors (ATCC and DSMZ). Cell lines were grown in RPMI-1640 supplemented with 2 mM glutamine, 1 mM sodium pyruvate and 10% fetal bovine serum (except for Capan-1 and HuP-T4 which were grown with 20% fetal bovine serum) and maintained at 37° C. and 5% CO2 in a humid incubator. Assays were performed in 384 well microtiter plates with optimum seeding densities for each cell line.
(§5) The test compounds were prepared as 10 mM stocks in 100% DMSO. Further dilutions of the compounds were made in DMSO. Compound A was diluted horizontally in a separate 96 well microtiter plate in rows D-G using a 3-fold dilution series for 10 dilution points. Compound B was similarly diluted horizontally in a 96 well microtiter plate in rows B-E using a 3-fold dilution series for 10 dilution points.
(§6) The two compounds were combined using equal volumes from each drug plate into cell culture media. […] Both Compound A and Compound B were individually titrated in rows B and C (for Compound B) and rows F and G (for Compound A) of the merged drug plate.
(§7) A 1:10 dilution of the drugs was performed in cell culture media prior to addition to the cells.
(§8) The final concentration range for the test compounds was 250 to 0.013 nM for Compound A and 1000 to […] for Compound B. The positive control consisted of culture media with DMSO at 0.1% and cells. The negative control consisted of culture media with DMSO at 0.1%. The cell lines were incubated at 37° C., 5% CO2 in humid air for 72 hours. Cell proliferation was measured using the CellTiter Glo (Promega) reagent according to the manufacturer's protocol. The plates are treated with CellTiter Glo solution and are analyzed for RLU (relative light units) using a Molecular Devices SpectraMax M5 plate reader.
(§9) The percent intensity values were used in model 205 of XLfit (IDBS, Inc.) in Microsoft Excel to calculate gIC50 values using a 4 parameter logistical fit. The midpoint of the growth window (the gIC50) falls half way between the number of cells at the time of compound addition (T=0) and the growth of control cells treated with DMSO at 72 hrs. The number of cells at time zero (T0) is divided from the intensity value at the bottom of the response curve (Ymin) to generate a measure for cell death (Ymin/T0). A value below 1 for Ymin/T0 indicates stronger potency to induce cell death with the treatment when compared to higher values. […]

A further experiment concerns A549. Nature of the experiment: Cell line proliferation study. The note with it: A549, lung; for IC50: Homo sapiens, 72 hours, read-out: gIC50. As for the experimental part:
as §4, §5, §6, §7, §8, §9

Another experiment has as its system SW1417. Description: Cell line proliferation study. The note with it: SW1417, colon; for IC50: Homo sapiens, 72 hours, read-out: gIC50. As for the experimental part:
as §4, §5, §6, §7, §8, §9

In another experiment the test system is RKO. Nature of the experiment: Cell line proliferation study. The note with it: colon; for IC50: Homo sapiens, 72 hours, read-out: gIC50. How it is done: as §4, §5, §6, §7, §8, §9
A further experiment relates to NCIH2170. Description: Cell line proliferation study. The note with it: NCIH2170, lung; for IC50: Homo sapiens, NCI-H2170, 72 hours, read-out: gIC50. As for the experimental part: as §4, §5, §6, §7, §8, §9

Turning to `CC(=O)Nc1cccc(-n2c(=O)n(C3CC3)c(=O)c3c(Nc4ccc(I)cc4F)n(C)c(=O)c(C)c32)c1` [Compound A, N-{3-[3-cyclopropyl-5-(2-fluoro-4-iodo-phenylamino)-6,8-dimethyl-2,4,7-trioxo-3,4,6,7-tetrahydro-2H-pyrido[4,3-d]pyrimidin-1-yl]phenyl}acetamide], the IC50 in the experiment with BT-474-J4 (Homo sapiens) is above 1000 nM; in the experiment with SUM225PE (Homo sapiens), above 1000 nM; in the experiment with JIMT-1, above 1000 nM; in the experiment on SKMES1 it was 80.4 nM; in the experiment with A549, 12.9 nM; in the experiment with SW1417, 2.86 nM. The figures for the IC50 in the experiment with RKO and in the experiment on NCIH2170 were 77.8 nM and above 250 nM, respectively. Moreover, in the experiment on JIMT-1, the “sensitivity as single agents” value was “not sensitive”. Moreover, the Ymin/T0 with SKMES1 stood at 19.5; with A549, 15.9; in the experiment on SW1417, 16.19; in the experiment on RKO, 24.44; in the experiment with NCIH2170 it was 59.5.
As to `Cn1ncc(Cl)c1-c1cc(C(=O)N[C@H](CN)Cc2ccc(F)c(F)c2)oc1Cl` [Compound B, N-{(1S)-2-amino-1-[(3,4-difluorophenyl)methyl]ethyl}-5-chloro-4-(4-chloro-1-methyl-1H-pyrazol-5-yl)-2-furancarboxamide], the IC50 with BT-474-J4 is 217 nM; in the experiment with BT-474-J4 (Homo sapiens), 271 nM; with SUM225PE (Homo sapiens) it was below 1000 nM; in the experiment with SUM225PE it was 529 nM; in the experiment with JIMT-1 it was above 1000 nM; with SKMES1, above 1000 nM. The IC50 with A549, in the experiment on SW1417, in the experiment on RKO and with NCIH2170 was above 1000 nM in each case. The “sensitivity as single agents” value in the experiment on JIMT-1 is “not sensitive”. Moreover, the Ymin/T0 with SKMES1 is reported as 49.6; in the experiment with A549, 32.7; in the experiment on SW1417, 3.63; in the experiment with RKO, 17.13; with NCIH2170, 18.2.
